Experimental data taken from patent US20230017532A1 (Hoffmann-La Roche Inc., priority 2018, published 2023).
Structures can show the parent of a compound that is named as a salt.

test system: Acinetobacter baumannii ATCC17978; experiment: Antimicrobial susceptibility testing: 90% growth inhibitory concentration (IC90) determination, Iso-Sensitest broth, OD 600 nm; type: cell-based; details: 90% growth inhibitory concentration, Acinetobacter baumannii ATCC17978, Iso-Sensitest broth, OD 600 nm over 16 h; read-out: ATCC 17978 IC90
Method in brief: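 Growth of bacteria (~5×10^5 CFU/ml, Iso-Sensitest medium, 35±2 °C) was followed by OD at 600 nm at 20-min intervals over 16 h against a 10-point twofold compound series (e.g. 50–0.097 μM final). Concentration giving 90% inhibition in log phase was reported.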

SMILES	IC90 [nM]
CCc1cc(Nc2nccn3c(-c4ccc(OC)c(F)c4F)cnc23)ccc1C(=O)NCCNCCN [Example 64, N-(2-((2-Aminoethyl)amino)ethyl)-4-((3-(2,3-difluoro-4-methoxyphenyl)imidazo[1,2-a]pyrazin-8-yl)amino)-2-ethylbenzamide]	110

same assay, conditions: Acinetobacter baumannii, ATCC17978, 16 h, 90% growth inhibitory concentration, Acinetobacter baumannii ATCC17978, Iso-Sensitest broth, OD 600 nm over 16 h; read-out: ATCC 17978 IC90

SMILES	IC90 [nM]
COc1ccc(-c2cnc3c(Nc4ccc(C(=O)N(C)CCOCCN5CCN(C6COC6)CC5)c(C)c4)nccn23)cc1F [Example 151, 4-[[3-(3-fluoro-4-methoxyphenyl)imidazo[1,2-a]pyrazin-8-yl]amino]-N,2-dimethyl-N-[2-[2-[4-(oxetan-3-yl)piperazin-1-yl]ethoxy]ethyl] benzamide]	1600
COc1ccc(-c2cnc3c(Nc4ccc(C(=O)NCCNCCO)c(C)c4)nccn23)cc1 [Example 7, N-(2-((2-hydroxyethyl)amino)ethyl)-4-((3-(4-methoxyphenyl)imidazo[1,2-a]pyrazin-8-yl)amino)-2-methylbenzamide]	1900
CCc1cc(Nc2nccn3c(-c4ccc(OC)c(F)c4F)cnc23)ccc1C(=O)NCCN(C)CCN [Example 168, N-[2-[2-aminoethyl (methyl)amino]ethyl]-4-[[3-(2,3-difluoro-4-methoxyphenyl)imidazo[1,2-a]pyrazin-8-yl]amino]-2-ethylbenzamide; hydrochloride]	120
COc1ccc(-c2cnc3c(Nc4ccc(C(=O)NCCOCC(=O)N5CCNCC5)c(C)c4)nccn23)cc1F [Example 105, 4-[[3-(3-fluoro-4-methoxyphenyl)imidazo[1,2-a]pyrazin-8-yl]amino]-2-methyl-N-[2-(2-oxo-2-piperazin-1-ylethoxy)ethyl] benzamide]	480
COc1ccc(-c2cnc3c(Nc4ccc(C(=O)N(C)CCOCCN5CCN(C6CC6)CC5)c(C)c4)nccn23)cc1F [Example 130, N-[2-[2-(4-cyclopropyl-piperazin-1-yl)ethoxy]ethyl]-4-[[3-(3-fluoro-4-methoxyphenyl)imidazo[1,2-a]pyrazin-8-yl]amino]-N,2-dimethyl-benzamide]	760
Cc1cc(Nc2nccn3c(-c4ccc(OCC#CCN)cc4)cnc23)ccc1C(=O)NCCOCCN [Example 123, 4-[[3-[4-(4-aminobut-2-ynoxy)phenyl]imidazo[1,2-a]pyrazin-8-yl]amino]-N-[2-(2-aminoethoxy)ethyl]-2-methylbenzamide; formic acid]	630
Cc1cc(Nc2nccn3c(-c4ccc(OC(F)F)cc4)cnc23)ccc1C(=O)NCCOCCOCCOCCN=[N+]=[N-] [Example 139, N-[2-[2-[2-(2-azidoethoxy)ethoxy]ethoxy]ethyl]-4-[[3-[4-(difluoro-methoxy)phenyl]imidazo [1,2-a]pyrazin-8-yl]amino]-2-methylbenzamide]	1000
CCc1cc(Nc2nccn3c(-c4ccc(OC)c(F)c4F)cnc23)ccc1C(=O)NCCCNCCN [Example 185, N-[3-(2-aminoethyl-amino)propyl]-4-[[3-(2,3-difluoro-4-methoxyphenyl)imidazo[1,2-a]pyrazin-8-yl]amino]-2-ethylbenzamide; 2,2,2-trifluoro-acetic acid]	590
CCc1cc(Nc2nccn3c(-c4ccc(OC)c(F)c4F)cnc23)ccc1C(=O)NCCNCCO [Example 196, 4-((3-(2,3-difluoro-4-methoxyphenyl)imidazo[1,2-a]pyrazin-8-yl)amino)-2-ethyl-N-(2-((2-hydroxyethyl)amino)ethyl) benzamide hydrochloride]	290
COc1ccc(-c2cnc3c(Nc4ccc(C(=O)NCCOCCN)c(C)c4)nccn23)cc1 [Example 14, N-(2-(2-aminoethoxy)ethyl)-4-((3-(4-methoxyphenyl)imidazo[1,2-a]pyrazin-8-yl)amino)-2-methylbenzamide hydrochloride]	240
C#CCOc1ccc(-c2cnc3c(Nc4ccc(C(=O)NCCNCCO)c(CC)c4)nccn23)c(F)c1F [Example 195, 4-[[3-(2,3-difluoro-4-prop-2-ynoxy-phenyl)imidazo[1,2-a]pyrazin-8-yl]amino]-2-ethyl-N-[2-(2-hydroxyethyl-amino)ethyl] benzamide]	490
CCc1cc(Nc2nccn3c(-c4ccc(OC)c(F)c4F)cnc23)ccc1C(=O)NCCOCCN(C)C [Example 169, 4-[[3-(2,3-difluoro-4-methoxyphenyl)imidazo[1,2-a]pyrazin-8-yl]amino]-N-[2-[2-(dimethylamino)ethoxy]ethyl]-2-ethylbenzamide]	130
COc1ccc(-c2cnc3c(Nc4ccc5c(c4)CCN(CCOCCN)C5=O)nccn23)c(F)c1F [Example 171, 2-[2-(2-aminoethoxy)ethyl]-6-[[3-(2,3-difluoro-4-methoxyphenyl)imidazo[1,2-a]pyrazin-8-yl]amino]-3,4-dihydroiso-quinolin-1-one;2,2,2-trifluoroacetic acid]	290
COc1ccc(-c2cnc3c(Nc4ccc(C(=O)NCCCOCC(=O)N5CCOC(CN)C5)c(C)c4)nccn23)cc1F (centres unmarked) [Example 124, N-[3-[2-[2-(aminomethyl)morpholin-4-yl]-2-oxoethoxy]propyl]-4-[[3-(3-fluoro-4-methoxyphenyl)imidazo[1,2-a]pyrazin-8-yl]amino]-2-methylbenzamide; hydrochloride]	640
Cc1cc(Nc2nccn3c(-c4ccc(OC(F)F)cc4)cnc23)ccc1C(=O)NCCOCCN1CCNCC1 [Example 134, 4-[[3-[4-(difluoromethoxy)phenyl]imidazo [1,2-a]pyrazin-8-yl]amino]-2-methyl-N-[2-(2-piperazin-1-ylethoxy)ethyl] benzamide; hydrochloride]	800
Cc1cc(Nc2nccn3c(-c4ccc(OC(F)F)cc4)cnc23)ccc1C(=O)NCCOCC(N)=O [Example 10, N-(2-(2-amino-2-oxoethoxy)ethyl)-4-((3-(4-(difluoromethoxy)phenyl)imidazo[1,2-a]pyrazin-8-yl)amino)-2-methylbenzamide]	170
COc1ccc(-c2cnc3c(Nc4ccc(C(=O)NCCOCCN5CCN(C)CC5)c(C)c4)nccn23)cc1 [Example 121, 4-[[3-(4-methoxyphenyl)imidazo[1,2-a]pyrazin-8-yl]amino]-2-methyl-N-[2-[2-(4-methylpiperazin-1-yl)ethoxy]ethyl] benzamide]	620
CNCCNC(=O)c1ccc(Nc2nccn3c(-c4ccc(OC)c(Cl)c4)cnc23)cc1 [Example 13, 4-[[3-(3-chloro-4-methoxyphenyl)imidazo[1,2-a]pyrazin-8-yl]amino]-N-[2-(methylamino)ethyl]benzamide;hydrochloride]	4200
CCN(C(=O)NCCCN(C)C)C(=O)c1ccc(Nc2nccn3c(-c4ccc(OCC#N)c(F)c4F)cnc23)cc1Cl [Example 27, 2-chloro-4-[[3-[4-(cyanomethoxy)-2,3-difluoro-phenyl]imidazo[1,2-a]pyrazin-8-yl]amino]-N-[3-(dimethylamino)propylcarbamoyl]-N-ethyl-benzamide]	560
COc1ccc(-c2cnc3c(Nc4ccc(C(=O)NCCOCCn5nccn5)c(C)c4)nccn23)cc1 [Example 147, 4-[[3-(4-methoxyphenyl)imidazo[1,2-a]pyrazin-8-yl]amino]-2-methyl-N-[2-[2-(triazol-2-yl)ethoxy)ethyl] benzamide]	1300
CCc1cc(Nc2nccn3c(-c4ccc(OC)c(F)c4F)cnc23)ccc1C(=O)NCCNCCCN [Example 188, N-[2-(3-amino-propylamino)ethyl]-4-[[3-(2,3-difluoro-4-methoxyphenyl)imidazo[1,2-a]pyrazin-8-y]amino]-2-ethylbenzamide; formic acid]	1200
Cc1cc(Nc2nccn3c(-c4ccc(OC(F)F)cc4)cnc23)ccc1C(=O)NCCOCCNC(=O)CN1CCN(C)CC1 [Example 143, 4-[[3-[4-(difluoro-methoxy)phenyl]imidazo [1,2-a]pyrazin-8-yl]amino]-2-methyl-N-[2-[2-[[2-(4-methylpiperazin-1-yl)acetyl]amino]ethoxy]ethyl] benzamide]	1200
CCc1cc(Nc2nccn3c(-c4ccc(OC)c(F)c4F)cnc23)ccc1C(=O)NCCCNCC(=O)O [Example 49, (3-(4-((3-(2,3-difluoro-4-methoxyphenyl)imidazo[1,2-a]pyrazin-8-yl)amino)-2-ethylbenzamido)propyl)glycine compound trifluoroacetate]	380
CCNCCCN(CC)C(=O)c1ccc(Nc2nccn3c(-c4ccc(OC)c(F)c4)cnc23)cc1C [Example 128, N-ethyl-N-[3-(ethylamino)propyl]-4-[[3-(3-fluoro-4-methoxyphenyl)imidazo[1,2-a]pyrazin-8-yl]amino]-2-methyl-benzamide]	3400
Cc1cc(Nc2nccn3c(-c4ccc(OC(F)F)cc4)cnc23)ccc1C(=O)N(C)CCOCCN [Example 136, N-[2-(2-aminoethoxy)ethyl]-4-[[3-[4-(difluoro-methoxy)phenyl]imidazo [1,2-a]pyrazin-8-yl]amino]-N,2-dimethyl-benzamide; hydrochloride]	860

same assay, conditions: Acinetobacter baumannii, ATCC17978, 16 h, read-out: ATCC 17978 IC90

SMILES	IC90 [nM]
COc1ccc(-c2cnc3c(Nc4ccc(C(=O)NCCOCCN)c(CC(F)F)c4)nccn23)c(F)c1F [Example 75, N-[2-(2-aminoethoxy)ethyl]-2-(2,2-difluoroethyl)-4-[[3-(2,3-difluoro-4-methoxy-phenyl)imidazo[1,2-a]pyrazin-8-yl]amino]benzamide; formic acid]	160
COc1ccc(-c2cnc3c(Nc4ccc(C(=O)NCCOCCN)c(C)c4)nccn23)c(F)c1 [Example 34, N-(2-(2-aminoethoxy)ethyl)-4-((3-(2-fluoro-4-methoxyphenyl)imidazo[1,2-a]pyrazin-8-yl)amino)-2-methylbenzamide hydrochloride]	590
Cc1cc(Nc2nccn3c(-c4ccc(Cl)c(F)c4)cnc23)ccc1C(=O)NCCOCCN [Example 32, N-(2-(2-aminoethoxy)ethyl)-4-((3-(4-chloro-3-fluorophenyl)imidazo[1,2-a]pyrazin-8-yl)amino)-2-methylbenzamide hydrochloride]	300
